Where two headings read alike, the source gives them in different places.
Columns and labels:
[1] = test system: HTT mRNA; assay: RT-qPCR splicing assay, HTT mRNA canonical (CJ) and alternative (AJ) junction; format: cell-based, human; conditions: for AC50: HTT alternative junction mRNA, read-out: HTT AJ (increase in AJ mRNA, AC50)
In short: (§1)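 Junction-specific RT-qPCR read-out: CJ and AJ isoform levels, housekeeper-normalized (GAPDH/GUSB/PPIA), ΔΔCt vs DMSO, converted to RQ then % response. Cells: A673 (DMEM/10% FBS, adhered 24 h) or K562 (IMDM/10% FBS). Compound 11-pt 3-fold, top 10 uM, 24 h, 37 °C.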

[2] = test system: SMN2 mRNA; assay: RT-qPCR splicing assay, SMN2 mRNA; format: cell-based, human; conditions: canonical junction qPCR panel, Table 4, read-out: SMN2 IC50 (decrease in CJ mRNA levels)
In short: as §1

[3] = Homo sapiens, HTT canonical junction mRNA, RT-qPCR, read-out: HTT CJ (decrease in CJ mRNA levels, IC50)
[4] = Homo sapiens, canonical junction qPCR panel, Table 4, read-out: HTT IC50 (decrease in CJ mRNA levels)

Cn1cc2cc(-c3ccc4nc(N5CCC(NC6CC6)C5)ccc4n3)c(O)c(F)c2n1 (racemic) [Compound 287, 5-{6-[3-(cyclopropylamino)pyrrolidin-1-yl]-1,5-naphthyridin-2-yl}-7-fluoro-2-methylindazol-6-ol; trifluoroacetic acid]
AC50 ([1]; Homo sapiens, RT-qPCR): < 100 nM | IC50 [1, 3]: < 100 nM | IC50 [1, 4]: < 100 nM | IC50 ([2]; Homo sapiens): < 100 nM

CC(C)N[C@@H]1CCN(c2ccc3nc(-c4cc5cn(C)nc5c(F)c4O)ccc3n2)C1 (single isomer, unassigned) [Compound 285]
AC50 ([1]; Homo sapiens, RT-qPCR): < 100 nM | IC50 [1, 3]: < 100 nM | IC50 [1, 4]: < 100 nM | IC50 ([2]; Homo sapiens): < 100 nM

CC(C)N[C@H]1CCN(c2ccc3nc(-c4cc5cn(C)nc5c(F)c4O)ccc3n2)C1 (single isomer, unassigned) [Compound 286]
AC50 ([1]; Homo sapiens, RT-qPCR): < 100 nM | IC50 [1, 3]: < 100 nM | IC50 [1, 4]: < 100 nM | IC50 ([2]; Homo sapiens): < 100 nM

Cc1c(O)c(-c2ccc3nc(N4CC[C@@H](NC5CCC5)C4)ccc3n2)cc2cn(C)nc12 (single isomer, unassigned) [Compound 289]
AC50 ([1]; Homo sapiens, RT-qPCR): < 100 nM | IC50 [1, 3]: < 100 nM | IC50 [1, 4]: < 100 nM | IC50 ([2]; Homo sapiens): < 100 nM

Cc1c(O)c(-c2ccc3nc(N4CC[C@H](NC5CCC5)C4)ccc3n2)cc2cn(C)nc12 (single isomer, unassigned) [Compound 290]
AC50 ([1]; Homo sapiens, RT-qPCR): < 100 nM | IC50 [1, 3]: < 100 nM | IC50 [1, 4]: < 100 nM | IC50 ([2]; Homo sapiens): < 100 nM

Cc1nc2cc(O)c(-c3ccc4nc(N5CCC(NCC6CC6)C5)ccc4n3)cc2o1 (single isomer, unassigned) [Compound 291, 6-(6-{3-[(cyclopropylmethyl)amino]pyrrolidin-1-yl}-1,5-naphthyridin-2-yl)-2-methyl-1,3-benzoxazol-5-ol]
AC50 ([1]; Homo sapiens, RT-qPCR): 100 to 1000 nM | IC50 [1, 3]: 100 to 1000 nM | IC50 [1, 4]: 100 to 1000 nM | IC50 ([2]; Homo sapiens): < 100 nM

Cc1nc2cc(O)c(-c3ccc4nc(N5CCC(NCC6CC6)C5)ccc4n3)cc2o1 (single isomer, unassigned) [Compound 292, 6-(6-{3-[(cyclopropylmethyl)amino]pyrrolidin-1-yl}-1,5-naphthyridin-2-yl)-2-methyl-1,3-benzoxazol-5-ol]
AC50 ([1]; RT-qPCR): 100 to 1000 nM | IC50 ([1]; HTT canonical junction mRNA, RT-qPCR, read-out: HTT CJ (decrease in CJ mRNA levels, IC50)): 100 to 1000 nM | IC50 ([1]; canonical junction qPCR panel, Table 4, read-out: HTT IC50 (decrease in CJ mRNA levels)): 100 to 1000 nM | IC50 [2]: < 100 nM

Cc1nc2c(C)c(O)c(-c3ccc4nc(N5CC[C@@H](NCC6CC6)C5)ccc4n3)cc2o1 (single isomer, unassigned) [Compound 295]
AC50 ([1]; Homo sapiens, RT-qPCR): < 100 nM | IC50 [1, 3]: < 100 nM | IC50 [1, 4]: < 100 nM | IC50 ([2]; Homo sapiens): < 100 nM

Cc1nc2c(C)c(O)c(-c3ccc4nc(N5CC[C@H](NCC6CC6)C5)ccc4n3)cc2o1 (single isomer, unassigned) [Compound 296]
AC50 ([1]; Homo sapiens, RT-qPCR): < 100 nM | IC50 [1, 3]: < 100 nM | IC50 [1, 4]: < 100 nM | IC50 ([2]; Homo sapiens): < 100 nM

Cn1cc2cc(-c3ccc4nc(N5CC[C@@H](N[C@H]6C[C@@H](F)C6)C5)ccc4n3)c(O)cc2n1 (single isomer, unassigned) [Compound 300]
AC50 ([1]; Homo sapiens, RT-qPCR): < 100 nM | IC50 [1, 3]: < 100 nM | IC50 [1, 4]: < 100 nM | IC50 ([2]; Homo sapiens): < 100 nM

Cn1cc2cc(-c3ccc4nc(N5CC[C@@H](NCC6CC6)C5)ccc4n3)c(O)c(F)c2n1 (single isomer, unassigned) [Compound 303]
AC50 ([1]; Homo sapiens, RT-qPCR): < 100 nM | IC50 [1, 3]: < 100 nM | IC50 [1, 4]: < 100 nM | IC50 ([2]; Homo sapiens): < 100 nM

Cn1cc2cc(-c3ccc4nc(N5CC[C@H](NCC6CC6)C5)ccc4n3)c(O)c(F)c2n1 (single isomer, unassigned) [Compound 304]
AC50 ([1]; Homo sapiens, RT-qPCR): < 100 nM | IC50 [1, 3]: < 100 nM | IC50 [1, 4]: < 100 nM | IC50 ([2]; Homo sapiens): < 100 nM

Cn1cc2cc(-c3ccc4nc(N5CC[C@@H](NC6CC6)C5)ccc4n3)c(O)c(F)c2n1 (single isomer, unassigned) [Compound 305]
AC50 ([1]; Homo sapiens, RT-qPCR): < 100 nM | IC50 [1, 3]: < 100 nM | IC50 [1, 4]: < 100 nM | IC50 ([2]; Homo sapiens): < 100 nM

Cn1cc2cc(-c3ccc4nc(N5CC[C@H](NC6CC6)C5)ccc4n3)c(O)c(F)c2n1 (single isomer, unassigned) [Compound 306]
AC50 ([1]; Homo sapiens, RT-qPCR): < 100 nM | IC50 [1, 3]: < 100 nM | IC50 [1, 4]: < 100 nM | IC50 ([2]; Homo sapiens): < 100 nM

Cc1nc2c(F)c(O)c(-c3ccc4nc(N5CC[C@@H](NC6CCC6)C5)ccc4n3)cc2o1 (single isomer, unassigned) [Compound 307]
AC50 ([1]; Homo sapiens, RT-qPCR): < 100 nM | IC50 [1, 3]: < 100 nM | IC50 [1, 4]: < 100 nM | IC50 ([2]; Homo sapiens): < 100 nM

Cc1nc2c(F)c(O)c(-c3ccc4nc(N5CC[C@H](NC6CCC6)C5)ccc4n3)cc2o1 (single isomer, unassigned) [Compound 308]
AC50 ([1]; Homo sapiens, RT-qPCR): < 100 nM | IC50 [1, 3]: < 100 nM | IC50 [1, 4]: < 100 nM | IC50 ([2]; Homo sapiens): < 100 nM

Cc1nc2c(C)c(O)c(-c3ccc4nc(N5CC[C@@H](NC6(C)CC6)C5)ccc4n3)cc2o1 (single isomer, unassigned) [Compound 310]
AC50 ([1]; Homo sapiens, RT-qPCR): < 100 nM | IC50 [1, 3]: < 100 nM | IC50 [1, 4]: < 100 nM | IC50 ([2]; Homo sapiens): < 100 nM

Cc1nc2c(C)c(O)c(-c3ccc4nc(N5CC[C@H](NC6(C)CC6)C5)ccc4n3)cc2o1 (single isomer, unassigned) [Compound 311]
AC50 ([1]; Homo sapiens, RT-qPCR): < 100 nM | IC50 [1, 3]: < 100 nM | IC50 [1, 4]: < 100 nM | IC50 ([2]; Homo sapiens): < 100 nM

Cc1nc2c(C)c(O)c(-c3ccc4nc(N5CC[C@@H](NC(C)C)C5)ccc4n3)cc2o1 (single isomer, unassigned) [Compound 313]
AC50 ([1]; Homo sapiens, RT-qPCR): < 100 nM | IC50 [1, 3]: < 100 nM | IC50 [1, 4]: < 100 nM | IC50 ([2]; Homo sapiens): < 100 nM

Cc1nc2c(C)c(O)c(-c3ccc4nc(N5CC[C@H](NC(C)C)C5)ccc4n3)cc2o1 (single isomer, unassigned) [Compound 314]
AC50 ([1]; Homo sapiens, RT-qPCR): < 100 nM | IC50 [1, 3]: < 100 nM | IC50 [1, 4]: < 100 nM | IC50 ([2]; Homo sapiens): < 100 nM

Cn1cc2cc(-c3ccc4nc(N5CC[C@@H](NC6CCC6)C5)ccc4n3)c(O)c(F)c2n1 (single isomer, unassigned) [Compound 316]
AC50 ([1]; Homo sapiens, RT-qPCR): < 100 nM | IC50 [1, 3]: < 100 nM | IC50 [1, 4]: < 100 nM | IC50 ([2]; Homo sapiens): < 100 nM

Cn1cc2cc(-c3ccc4nc(N5CC[C@H](NC6CCC6)C5)ccc4n3)c(O)c(F)c2n1 (single isomer, unassigned) [Compound 317]
AC50 ([1]; Homo sapiens, RT-qPCR): < 100 nM | IC50 [1, 3]: < 100 nM | IC50 [1, 4]: < 100 nM | IC50 ([2]; Homo sapiens): < 100 nM

Cc1c(O)c(-c2ccc3nc(N4CC[C@@H](NC(C)C)C4)ccc3n2)cc2cn(C)nc12 (single isomer, unassigned) [Compound 319]
AC50 ([1]; Homo sapiens, RT-qPCR): < 100 nM | IC50 [1, 3]: < 100 nM | IC50 [1, 4]: < 100 nM | IC50 ([2]; Homo sapiens): < 100 nM

Cc1c(O)c(-c2ccc3nc(N4CC[C@H](NCC5CC5)C4)ccc3n2)cc2cn(C)nc12 (single isomer, unassigned) [Compound 321]
AC50 ([1]; Homo sapiens, RT-qPCR): < 100 nM | IC50 [1, 3]: < 100 nM | IC50 [1, 4]: < 100 nM | IC50 ([2]; Homo sapiens): < 100 nM

Cc1c(O)c(-c2ccc3nc(N4CC[C@@H](NCC5CC5)C4)ccc3n2)cc2cn(C)nc12 (single isomer, unassigned) [Compound 322]
AC50 ([1]; Homo sapiens, RT-qPCR): < 100 nM | IC50 [1, 3]: < 100 nM | IC50 [1, 4]: < 100 nM | IC50 ([2]; Homo sapiens): < 100 nM

Cc1nc2c(F)c(O)c(-c3ccc4nc(N5CC[C@@H](NCC6CC6)C5)ccc4n3)cc2o1 (single isomer, unassigned) [Compound 323]
AC50 ([1]; Homo sapiens, RT-qPCR): < 100 nM | IC50 [1, 3]: < 100 nM | IC50 [1, 4]: < 100 nM | IC50 ([2]; Homo sapiens): < 100 nM

Cc1nc2c(F)c(O)c(-c3ccc4nc(N5CC[C@H](NCC6CC6)C5)ccc4n3)cc2o1 (single isomer, unassigned) [Compound 324]
AC50 ([1]; Homo sapiens, RT-qPCR): < 100 nM | IC50 [1, 3]: < 100 nM | IC50 [1, 4]: < 100 nM | IC50 ([2]; Homo sapiens): < 100 nM

Cc1nc2c(F)c(O)c(-c3ccc4nc(N5CC[C@@H](NC(C)C)C5)ccc4n3)cc2o1 (single isomer, unassigned) [Compound 329]
AC50 ([1]; Homo sapiens, RT-qPCR): < 100 nM | IC50 [1, 3]: < 100 nM | IC50 [1, 4]: < 100 nM | IC50 ([2]; Homo sapiens): < 100 nM

Cc1nc2c(F)c(O)c(-c3ccc4nc(N5CC[C@H](NC(C)C)C5)ccc4n3)cc2o1 (single isomer, unassigned) [Compound 330]
AC50 ([1]; Homo sapiens, RT-qPCR): < 100 nM | IC50 [1, 3]: < 100 nM | IC50 [1, 4]: < 100 nM | IC50 ([2]; Homo sapiens): < 100 nM
